Experimental data: patent US9951065B2 (Gilead Sciences, Inc., priority 2015, dated 2018)

Biological target: T1, IDO1 (Homo sapiens, UniProt P14902)
T1 construct: HeLa cells were treated with a test compound in the presence of IFNγ, which induces IDO1 expression; host or cells: H1-HeLa cells, IDO1 induced with IFNγ
Test: Cell-based (HeLa) assay for measurement of IDO1 inhibition (kynurenine levels in supernatant after IFNγ induction)
Details: HeLa cells, geometric mean of a minimum of four determinations
Procedure, shortened: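 IDO1 activity is read as kynurenine released into the medium, detected with Ehrlich's reagent (p-dimethylaminobenzaldehyde) at 480 nm after TCA treatment. HeLa cells were exposed 48 h to compounds in 0.5% DMSO alongside IFNγ induction. Values normalized to no-IFNγ and IFNγ controls; four-parameter EC50 given as geometric mean of ≥4 determinations.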

[1] = IFNγ-induced IDO1, kynurenine in supernatant, 48 hour incubation
[2] = IFNγ-induced IDO1, kynurenine in supernatant after 48 hour incubation

T1 sequence (P14902 whole entry): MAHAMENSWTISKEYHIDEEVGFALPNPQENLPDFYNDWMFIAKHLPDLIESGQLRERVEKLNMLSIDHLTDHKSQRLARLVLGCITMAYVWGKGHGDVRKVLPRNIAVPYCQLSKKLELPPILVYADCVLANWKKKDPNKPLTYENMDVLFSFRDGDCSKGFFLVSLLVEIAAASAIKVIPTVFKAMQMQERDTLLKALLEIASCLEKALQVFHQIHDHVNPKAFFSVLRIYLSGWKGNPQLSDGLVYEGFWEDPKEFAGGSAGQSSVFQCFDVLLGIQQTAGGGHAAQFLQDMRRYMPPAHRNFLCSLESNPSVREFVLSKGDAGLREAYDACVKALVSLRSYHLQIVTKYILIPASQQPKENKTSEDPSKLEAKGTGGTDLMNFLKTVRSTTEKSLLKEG

| Structure (SMILES) | EC50 [1] [nM] | EC50 [2] [nM] |
| --- | --- | --- |
| C[C@@H]1CN(CCNc2nc3nccc(/C(=N/O)Nc4ccc(F)c(Cl)c4)c3[nH]2)C[C@H](C)O1 [Example 478, N-(3-chloro-4-fluorophenyl)-2-((2-((2S,6R)-2,6-dimethylmorpholino)ethyl)amino)-N′-hydroxy-1H-imidazo[4,5-b]pyridine-7-carboximidamide] | 1010 |  |
| Nc1nc2cc(F)cc(/C(=N/O)Nc3ccc(F)c(Cl)c3)c2[nH]1 [Example 370, 2-amino-N-(3-chloro-4-fluorophenyl)-5-fluoro-N′-hydroxy-1H-benzo[d]imidazole-7-carboximidamide] | 1080 |  |
| CN(C)C(CNc1nc2c(F)c(F)cc(/C(=N/O)Nc3ccc(F)c(Cl)c3)c2[nH]1)c1ccccc1 (stereo not shown) [Example 436, N-(3-chloro-4-fluorophenyl)-2-((2-(dimethylamino)-2-phenylethyl)amino)-4,5-difluoro-N′-hydroxy-1H-benzo[d]imidazole-7-carboximidamide] | 2020 |  |
| Cc1ccc(N/C(=N\O)c2ccnc3nc[nH]c23)cc1 [Example 94, N′-Hydroxy-N-(p-tolyl)-1H-imidazo[4,5-b]pyridine-7-carboximidamide] |  | 6350 |
| CN(C)CCCNc1nc2c(F)c(F)cc(/C(=N/O)Nc3cccc(Cl)c3)c2[nH]1 [Example 385, N-(3-chlorophenyl)-2-((3-(dimethylamino)propyl)amino)-4,5-difluoro-N′-hydroxy-1H-benzo[d]imidazole-7-carboximidamide] | 580 |  |
| CC(C)NCCc1nc2nccc(/C(=N/O)Nc3ccc(F)c(Cl)c3)c2[nH]1 [Example 205, N-(3-chloro-4-fluorophenyl)-N′-hydroxy-2-(2-(isopropylamino)ethyl)-3H-imidazo[4,5-b]pyridine-7-carboximidamide] |  | 2820 |
| CCN(CC)CCNc1nc2nccc(/C(=N/O)Nc3ccc(F)c(Cl)c3)c2[nH]1 [Example 167, N-(3-Chloro-4-fluorophenyl)-2-((2-(diethylamino)ethyl)amino)-N′-hydroxy-1H-imidazo[4,5-b]pyridine-7-carboximidamide] |  | 2910 |
| NC1=NCCN1CCc1nc2nccc(/C(=N/O)Nc3ccc(F)c(Cl)c3)c2[nH]1 [Example 209, 2-(2-(2-amino-4,5-dihydro-1H-imidazol-1-yl)ethyl)-N-(3-chloro-4-fluorophenyl)-N′-hydroxy-1H-imidazo[4,5-b]pyridine-7-carboximidamide] |  | 5000 |
| O/N=C(\Nc1cc2ccccc2cc1Cl)c1ccnc2nc[nH]c12 [Example 103, N-(3-Chloronaphthalen-2-yl)-N′-hydroxy-1H-imidazo[4,5-b]pyridine-7-carboximidamide] |  | 8070 |
| CN1CCC[C@@H](Nc2nc3c(F)c(F)cc(/C(=N/O)Nc4cccc(Cl)c4)c3[nH]2)C1 [Example 460, (R)—N-(3-chlorophenyl)-4,5-difluoro-N′-hydroxy-2-((1-methylpiperidin-3-yl)amino)-1H-benzo[d]imidazole-7-carboximidamide] | 193 |  |
| CCN(CCNc1nc2nccc(/C(=N/O)Nc3ccc(F)c(Cl)c3)c2[nH]1)C1CC1 [Example 403, N-(3-chloro-4-fluorophenyl)-2-((2-(cyclopropyl(ethyl)amino)ethyl)amino)-N′-hydroxy-1H-imidazo[4,5-b]pyridine-7-carboximidamide] | 192 |  |
| O/N=C(\Nc1ccc(F)c(Cl)c1)c1ccnc2nc(NC3CC(F)(F)C3)[nH]c12 [Example 162, N-(3-Chloro-4-fluorophenyl)-2-((3,3-difluorocyclobutyl)amino)-N′-hydroxy-1H-imidazo[4,5-b]pyridine-7-carboximidamide] |  | 4020 |
| ON=C(Nc1ccc(F)c(Cl)c1)c1cc(F)c(F)c2nc(Cl)[nH]c12 [Example 346, 2-chloro-N-(3-chloro-4-fluorophenyl)-4,5-difluoro-N′-hydroxy-1H-benzo[d]imidazole-7-carboximidamide] | 8470 |  |

The remaining lines, values ahead:

| EC50 [1] [nM] | EC50 [2] [nM] | Structure (SMILES) |
| --- | --- | --- |
|  | 428 | CN(C)CCNc1nc2c(F)ccc(/C(=N/O)Nc3ccc(F)c(Cl)c3)c2[nH]1 [Example 201, N-(3-Chloro-4-fluorophenyl)-2-[2-(dimethylamino)ethylamino]-7-fluoro-N′-hydroxy-3H-benzimidazole-4-carboximidamide] |
|  | 1330 | COCCCNCc1nc2nccc(/C(=N/O)Nc3ccc(F)c(Cl)c3)c2[nH]1 [Example 120, N-(3-Chloro-4-fluorophenyl)-N′-hydroxy-2-(((3-methoxypropyl)amino)methyl)-1H-imidazo[4,5-b]pyridine-7-carboximidamide] |
|  | 291 | CN(CCNc1nc2nccc(/C(=N/O)Nc3ccc(F)c(Cl)c3)c2[nH]1)C1CC1 [Example 231, N-(3-chloro-4-fluorophenyl)-2-((2-(cyclopropyl(methyl)amino)ethyl)amino)-N′-hydroxy-1H-imidazo[4,5-b]pyridine-7-carboximidamide] |
|  | 1510 | COCCNCCc1nc2nccc(/C(=N/O)Nc3ccc(F)c(Cl)c3)c2[nH]1 [Example 190, N-(3-Chloro-4-fluorophenyl)-N′-hydroxy-2-(2-((2-methoxyethyl)amino)ethyl)-1H-imidazo[4,5-b]pyridine-7-carboximidamide] |
|  | 136 | CN(C)CCNc1nc2c(F)c(F)cc(/C(=N/O)Nc3ccc(F)c(Cl)c3)c2[nH]1 [Example 43, N-(3-Chloro-4-fluorophenyl)-2-((2-(dimethylamino)ethyl)amino)-4,5-difluoro-N′-hydroxy-1H-benzo[d]imidazole-7-carboximidamide] |
|  | 2230 | CC(C)NCc1nc2c(F)ccc(/C(=N/O)Nc3ccc(F)c(Cl)c3)c2[nH]1 [Example 289, N-(3-chloro-4-fluorophenyl)-4-fluoro-N′-hydroxy-2-((isopropylamino)methyl)-1H-benzo[d]imidazole-7-carboximidamide] |
|  | 504 | COCCN(C)CCc1nc2nccc(/C(=N/O)Nc3ccc(F)c(Cl)c3)c2[nH]1 [Example 194, N-(3-Chloro-4-fluorophenyl)-N′-hydroxy-2-(2-((2-methoxyethyl)(methyl)amino)ethyl)-1H-imidazo[4,5-b]pyridine-7-carboximidamide] |
|  | 312 | Nc1nc2c(F)ccc(/C(=N/O)Nc3cccc(Br)c3)c2[nH]1 [Example 18, 2-Amino-N-(3-bromophenyl)-4-fluoro-N′-hydroxy-1H-benzo[d]imidazole-7-carboximidamide] |
|  | 1510 | CNCCc1nc2nccc(/C(=N/O)Nc3ccc(F)c(Cl)c3)c2[nH]1 [Example 188, N-(3-Chloro-4-fluorophenyl)-N′-hydroxy-2-(2-(methylamino)ethyl)-1H-imidazo[4,5-b]pyridine-7-carboximidamide] |
|  | 1920 | Cc1nc2nccc(/C(=N/O)Nc3ccc(F)c(Cl)c3)c2[nH]1 [Example 107, N-(3-Chloro-4-fluorophenyl)-N′-hydroxy-2-methyl-1H-imidazo[4,5-b]pyridine-7-carboximidamide] |
|  | 2150 | CS(=O)(=O)CCNc1nc2c(F)c(F)cc(/C(=N/O)Nc3ccc(F)c(Cl)c3)c2[nH]1 [Example 35, N-(3-Chloro-4-fluorophenyl)-4,5-difluoro-N′-hydroxy-2-((2-(methylsulfonyl)ethyl)amino)-1H-benzo[d]imidazole-7-carboximidamide] |
|  | 1970 | O/N=C(\Nc1cccc2ccccc12)c1ccnc2nc[nH]c12 [Example 104, N′-hydroxy-N-(naphthalen-1-yl)-1H-imidazo[4,5-b]pyridine-7-carboximidamide] |
